According to patent US11214803B2, “Modulators of YAP1 expression” (Ionis Pharmaceuticals, Inc., priority 2019, dated 2022):
Strand notation (5' to 3'): a small letter for the sugar, then the base; units joined by * are phosphorothioate-linked, units joined directly phosphodiester-linked; [ ] holds rarer units or linkages, { } end groups; capitals alone tell only the bases. k = constrained ethyl (cEt); [5mC] = 5-methylcytosine; d = 2'-deoxy (DNA)

Tested on: Yap1 mRNA
Assay: Antisense inhibition of human Yap1 in A-431 cells by cEt gapmers, single dose (Example 3, RTS36584)
Type: cell-based
Procedure, shortened: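 Human epidermoid A-431 cells take up gapmer (2,000 nM, free uptake, ~48 h); Yap1 transcript is then assayed by qRT-PCR with RiboGreen normalization and reported relative to untreated cells. Gapmers carry cEt-modified wings, phosphorothioate linkages and 5-methylcytosine throughout.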

[1] = Table 10, A-431 cells, 5,000 cells per well, free uptake, 2,000 nM oligonucleotide, approx. 48 hours, primer probe set RTS36584, Yap1 mRNA normalized to RIBOGREEN, percent of untreated control
[2] = Table 12, A-431 cells, 5,000 cells per well, free uptake, 2,000 nM modified oligonucleotide, approx. 48 hours, RTS36584, normalized to RIBOGREEN, Yap1 mRNA relative to untreated control cells
[3] = Table 9, A-431 cells, 5,000 cells per well, free uptake, 2,000 nM, approximately 48 hours, RTS36584, normalized to RIBOGREEN, Yap1 mRNA relative to untreated control cells
[4] = Table 29, Yap1 mRNA as percent of untreated control, 3-10-3 cEt gapmers targeting SEQ ID NO.: 1, and 2
[5] = Table 13, A-431 cells, 5,000 cells per well, free uptake, 2,000 nM modified oligonucleotide, approx. 48 hours, RTS36584, normalized to RIBOGREEN, Yap1 mRNA relative to untreated control cells
[6] = Table 27, Yap1 mRNA by 3-10-3 cEt gapmers targeting SEQ ID NO.: 1, and 2, percent of untreated control

Substance: 958662 (kG*kA*kA*d[5mC]*dA*dG*dA*dT*dA*dG*dG*dA*d[5mC]*kT*kA*k[5mC]; antisense) [Compound 958662]
- YAP1 (% UTC) [1]: 51 % UTC

Substance: 958634 (antisense kT*k[5mC]*k[5mC]*dT*dT*dA*dA*d[5mC]*d[5mC]*d[5mC]*dG*dG*dG*kT*kT*kT) [Compound 958634]
- YAP1 (% UTC) [2]: 61 % UTC

Substance: 958686 (antisense k[5mC]*kG*k[5mC]*dA*dA*dT*dA*dT*dA*dG*dT*d[5mC]*dT*kA*kT*kA) [Compound 958686]
- YAP1 (% UTC) [3]: 4 % UTC

Substance: 1074996 (antisense kA*kA*kT*dA*dA*dA*dT*dG*d[5mC]*dT*dT*dA*d[5mC]*kG*kG*kG) [compound 1074996]
- YAP1 (% UTC) (Table 34, Yap1 mRNA as percent of untreated control, 3-10-3 cEt gapmers targeting SEQ ID NO: 1 and 2, single dose): 60 % UTC

Substance: 1075023 (antisense kG*kT*kA*dT*dT*dT*dA*d[5mC]*dA*dA*d[5mC]*d[5mC]*dT*kA*kG*kA) [compound 1075023]
- YAP1 (% UTC) [4]: 18 % UTC

Substance: 1075765 (k[5mC]*kT*kT*dA*dA*dG*dG*d[5mC]*dA*dG*d[5mC]*dT*d[5mC]*kT*kA*kT; antisense) [compound 1075765]
- YAP1 (% UTC) (Table 35, Yap1 mRNA as percent of untreated control, 3-10-3 cEt gapmers targeting SEQ ID NO: 1 and 2, single dose): 58 % UTC

Substance: 958455 (antisense kA*kG*kA*dG*dG*dA*dA*dT*dG*dA*dG*d[5mC]*dT*k[5mC]*kG*kA) [Compound 958455]
- YAP1 (% UTC) [5]: 43 % UTC

Substance: 958582 (kA*kA*kT*d[5mC]*dT*dG*d[5mC]*dT*dG*dA*dT*dA*dT*kA*kT*kA; antisense) [Compound 958582]
- YAP1 (% UTC) [1]: 21 % UTC

Substance: 958791 (antisense k[5mC]*kA*kT*dA*dA*dG*dA*dA*dA*dA*dG*dA*d[5mC]*kG*kA*k[5mC]) [Compound 958791]
- YAP1 (% UTC) [3]: 123 % UTC

Substance: 958595 (k[5mC]*k[5mC]*kA*d[5mC]*dA*dT*d[5mC]*dA*dA*dG*dG*d[5mC]*dT*kA*kT*kG; antisense) [Compound 958595]
- YAP1 (% UTC) [5]: 8 % UTC

Substance: 958691 (antisense kT*k[5mC]*kA*dG*dT*dT*dG*dG*d[5mC]*dA*dA*d[5mC]*dA*kG*kT*k[5mC]) [Compound 958691]
- YAP1 (% UTC) [3]: 20 % UTC

Substance: 1074126 (k[5mC]*kT*kG*dG*d[5mC]*dG*dG*d[5mC]*dT*dG*d[5mC]*dG*d[5mC]*k[5mC]*kT*k[5mC]; antisense) [compound 1074126]
- YAP1 (% UTC) (Table 28, Yap1 mRNA as percent of untreated control, 3-10-3 cEt gapmers targeting SEQ ID NO.: 1, and 2): 111 % UTC

Substance: 1076205 (kT*kA*kG*dT*dA*dT*dA*dA*dT*dT*d[5mC]*dA*dT*kG*kA*k[5mC]; antisense) [compound 1076205]
- YAP1 (% UTC) [6]: 51 % UTC

Substance: 958501 (kT*kG*k[5mC]*d[5mC]*dT*dA*dG*dG*dT*dT*d[5mC]*d[5mC]*dG*kA*k[5mC]*kA; antisense) [Compound 958501]
- YAP1 (% UTC) [3]: 41 % UTC

Substance: 958671 (k[5mC]*kA*kT*dT*dA*dT*dA*dT*dG*dG*d[5mC]*dA*d[5mC]*k[5mC]*k[5mC]*kA; antisense) [Compound 958671]
- YAP1 (% UTC) [3]: 19 % UTC

Substance: 1076429 (k[5mC]*kA*kT*dT*dA*d[5mC]*dA*dA*dG*d[5mC]*dA*dT*dA*kG*kG*k[5mC]; antisense) [compound 1076429]
- YAP1 (% UTC) [6]: 26 % UTC

Substance: 1076335 (antisense k[5mC]*kA*k[5mC]*d[5mC]*dT*dA*dT*dA*dA*dG*dG*dA*dA*kT*kG*kG) [compound 1076335]
- YAP1 (% UTC) [4]: 80 % UTC

Substance: 958495 (kG*kG*kT*d[5mC]*dA*dT*dT*dA*dT*dG*dT*dG*dA*k[5mC]*kT*kA; antisense) [Compound 958495]
- YAP1 (% UTC) [5]: 56 % UTC

Substance: 958629 (antisense k[5mC]*k[5mC]*k[5mC]*dG*dA*dG*dT*dG*dG*dG*d[5mC]*dT*dA*kA*k[5mC]*kT) [Compound 958629]
- YAP1 (% UTC) [2]: 128 % UTC

Substance: 958398 (antisense kG*k[5mC]*kA*dG*dG*d[5mC]*dT*dA*dT*dT*dA*dA*dG*k[5mC]*kT*kG) [Compound 958398]
- YAP1 (% UTC) (Table 8, A-431 cells, 5,000 cells per well, free uptake, 2,000 nM, approximately 48 hours, RTS36584, normalized to RIBOGREEN, Yap1 mRNA relative to untreated control cells): 76 % UTC

Substance: 958461 (antisense kG*k[5mC]*k[5mC]*dG*dA*dA*dG*d[5mC]*dA*dG*dT*dT*d[5mC]*kT*kT*kG) [Compound 958461]
- YAP1 (% UTC) [3]: 79 % UTC

Substance: 1075087 (antisense kT*k[5mC]*kT*d[5mC]*dA*dA*dT*dA*dA*dG*dT*dT*dA*kT*kA*kG) [compound 1075087]
- YAP1 (% UTC) [4]: 39 % UTC
